Among the test systems are DLD-1; LXFL 529; XF498; RXF 631; DU-145; PC-3; BT-549; MDA-N; Hs-578T.
What all share (test): NCI tumour cell line growth inhibition, 48 h

Counter-ions that a name gives are not always drawn.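 48-hour exposure; five concentrations; linearly interpolated endpoints. At the GI50, growth is halved.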 Calls of active or inactive are those of the source. Cut-off read from the data, not from the text of the source: active = GI50 up to about 1.1 µM and inactive = higher. Some results are limits rather than exact numbers.

This is an account of results in ChEMBL document CHEMBL1201862, “PubChem BioAssay data set” (2004).

As to `COC(=O)C(=O)C1(CCC(C)=O)c2ccccc2-c2ccccc21`, the GI50 was 66.2 µM (inactive) in the assay with DLD-1 and 47.1 µM (inactive) with LXFL 529.

For `COc1cc(/C=N/c2nncs2)ccc1O`, the GI50 with XF498, in the assay with LXFL 529 and in the assay with RXF 631 was > 100 µM (inactive) each time.

On to `COc1cccc2c(Nc3ccc(S(=O)(=O)NC(C)=O)cc3)c3ccc([N+](=O)[O-])cc3nc12`, for which the GI50 in the assay on DU-145 is > 70.3 µM (inactive); with PC-3, 20.4 µM (inactive); in the assay on BT-549, 26.3 µM (inactive); in the assay on MDA-N, 36.6 µM (inactive); with Hs-578T, 32.3 µM (inactive).

As to `COC(=O)C(CC=O)C(=O)C(=O)Nc1cccc(C(F)(F)F)c1` (stereo not given), the GI50 in the assay on XF498, with DLD-1, in the assay with LXFL 529 and in the assay with RXF 631 was > 100 µM (inactive) throughout.

As to `O=C(O)CCSC(=O)Nc1ccccc1`, the GI50 was > 100 µM (inactive) in the assay with DLD-1 and 61.9 µM (inactive) in the assay on LXFL 529.

On to `COc1cccc(NC(=O)CC(=O)N2N=C(N(CCC#N)c3ccc(Cl)cc3)CC2c2ccccc2)c1` (stereo not given), for which the GI50 in the assay on DLD-1 and with LXFL 529 was > 100 µM (inactive) in each case.

For the molecule `CCc1cccc(CC)c1NC(=O)C(=O)Cc1nc2ccccc2o1`, the GI50 in the assay on DLD-1 and with LXFL 529 was > 100 µM (inactive) each time.

Turning to `O=C(N/N=C\c1ccc(Cl)cc1)Nc1ccc2ccccc2c1`, the GI50 was > 100 µM (inactive) with DU-145; 30.3 µM (inactive) in the assay with PC-3; 56.6 µM (inactive) in the assay with BT-549; 86.7 µM (inactive) in the assay with MDA-N; 26.9 µM (inactive) in the assay with Hs-578T.

`CCN(CC)C1=Nc2ccccc2-n2c(C)cnc2C1`: the GI50 in the assay on DU-145, in the assay on PC-3, in the assay on BT-549, with MDA-N and with Hs-578T was > 100 µM (inactive) each time.

On to `Cc1ccc(-c2nc3ccccc3c(=O)n2NCC2(O)OCC(O)C(O)C2O)cc1` (stereo not given), for which the GI50 in the assay with LXFL 529 was > 100 µM (inactive).

On to `N#CC(C#N)=C1NN=C(Cl)c2ccccc21`, for which the figures for the GI50 in the assay on DLD-1, with LXFL 529 and with RXF 631 were > 100 µM (inactive), 65 µM (inactive) and 80.5 µM (inactive), respectively.

Regarding `Cc1cc2c(=O)cc(-c3ccc(C(=O)O)cc3)oc2c(C(N)=O)c1C`, the GI50 with DLD-1, in the assay on LXFL 529 and in the assay on RXF 631 was > 100 µM (inactive) each time.

Turning to `O=C(c1cc(O)ccc1O)c1ccccc1C(Cl)(Cl)Cl`, the GI50 in the assay with XF498 was 34.9 µM (inactive); in the assay with LXFL 529, 61.4 µM (inactive).

On to `CC1CN1c1c(C(=O)/C=C/c2ccccc2)c(-c2ccccc2)nn(C)c1=O` (stereo not given), for which the GI50 was 15.2 µM (inactive) with DLD-1 and 15.3 µM (inactive) in the assay on LXFL 529.

As to `COC(=O)c1c(OC)cccc1C(=O)O`, the GI50 with LXFL 529 and in the assay on RXF 631 was > 100 µM (inactive) throughout.

`CC1CC(=O)Nc2ccc(Cl)cc2N1C(=O)CN1CCC(CCCCN(C)C)CC1` (stereo not given): the GI50 in the assay with DLD-1, with LXFL 529 and in the assay with RXF 631 was > 100 µM (inactive) in each case.

In the case of `CC(=O)O/C(=C(/C#N)C(=O)O)C1C(C(=O)O)C(c2ccccc2[N+](=O)[O-])C=C(c2ccco2)N1c1ccncc1` (stereo not given), the GI50 with DU-145 is 8.49 µM (inactive); in the assay on PC-3 it was 6.4 µM (inactive); in the assay with BT-549, 6.04 µM (inactive); in the assay with MDA-N, 2.81 µM (inactive); in the assay on Hs-578T, 8.93 µM (inactive).

On to `COc1ccc2c3ccc4c(c3n(C)c2c1)C(=O)c1ccccc1C4=O`, for which the GI50 in the assay on DLD-1 is > 100 µM (inactive); in the assay with LXFL 529, 78 µM (inactive).

Take `OCC(O)C(O)C(O)c1nn(-c2ccc(Cl)cc2)c2nc3cc(Cl)c(Cl)cc3nc12` (stereo not given): the values for the GI50 in the assay on XF498, in the assay with DLD-1 and in the assay on LXFL 529 were 11.1 µM (inactive), > 100 µM (inactive) and 33 µM (inactive), respectively.

Take `N#CC(/C(=N\NC(N)=S)C(=O)NC1C2CC3CC(C2)CC1C3)c1ccc(Cl)cc1` (stereo not given): the GI50 in the assay with XF498, with DLD-1, with LXFL 529 and in the assay on RXF 631 was > 100 µM (inactive) each time.

In the case of `CC(=O)OCC12C(OC(C)=O)C[C@@H](C)C3(CC(c4ccoc4)OC3=O)C1CCC(OC(C)=O)C21CO1` (stereo not given in full), the GI50 with DU-145, in the assay on PC-3, in the assay with BT-549, with MDA-N and in the assay with Hs-578T was > 100 µM (inactive) each time.

Take `O=C1NC(Cc2ccccc2)C(=O)N2CCCC12` (stereo not given): the GI50 in the assay on XF498, in the assay with DLD-1 and with LXFL 529 was > 100 µM (inactive) in each case.

Turning to `CN(C)c1ccc(/C=C/C(=O)c2ccccc2)cc1Br`, the GI50 in the assay on XF498 is 16.3 µM (inactive); in the assay with DLD-1 it was 18.9 µM (inactive); with LXFL 529, 15.1 µM (inactive).

In the case of `COc1cc(/C=C(\C#N)C(=O)c2ccccc2)cc(OC)c1OC`, the GI50 with DLD-1 and in the assay with LXFL 529 was > 100 µM (inactive) throughout.

On to `CCC(=O)N1C(=O)OCC1C(C)C` (stereo not given), for which the GI50 with XF498, in the assay with DLD-1, in the assay with LXFL 529 and in the assay with RXF 631 was > 100 µM (inactive) throughout.

Take `CCN1CCC(O)(c2ccc(Oc3ccc(F)cc3)cc2)C(C(=O)c2ccc(Oc3ccc(F)cc3)cc2)C1` (stereo not given): the GI50 in the assay with DU-145 is 12.2 µM (inactive); with PC-3, 13.4 µM (inactive); in the assay with BT-549, 15.7 µM (inactive); in the assay on MDA-N, 16.9 µM (inactive); with Hs-578T, 17.2 µM (inactive).

As for `Clc1ccc(/C=C/c2csnn2)cc1`, the GI50 in the assay on XF498, in the assay on DLD-1 and with LXFL 529 was > 100 µM (inactive) in each case.

Take `C[C@H]1NC(=O)C2CCCCN2C(=O)CN(C)C(=O)CNC(=O)C2CCCCN2C(=O)[C@@H](NC(=O)c2nc3ccccc3cc2O)[C@@H](C)NC(=O)C2CCCCN2C(=O)CN(C)C(=O)CNC(=O)[C@@H]2CCCCN2C(=O)C1NC(=O)c1nc2ccccc2cc1O` (stereo not given in full): the GI50 with LXFL 529 is 0.14 µM (active); with RXF 631, 0.164 µM (active).

For `CCCCCCCCCCCCCC(=O)CSCCNC(=O)CCNC(=O)[C@@H](O)C(C)(C)COP(=O)(O)OP(=O)(O)OCC1OC(n2cnc3c(N)ncnc32)C(O)C1OP(=O)(O)O` (stereo not given in full), the GI50 in the assay on XF498 is 18.5 µM (inactive); with DLD-1 it was 19 µM (inactive); with LXFL 529, 17.5 µM (inactive).

As to `C/C(=N\NC(N)=S)c1cccs1.OB(O)c1ccccc1`, the GI50 in the assay with DU-145, with PC-3, in the assay on BT-549, with MDA-N and in the assay with Hs-578T was > 100 µM (inactive) each time.

In the case of `COC1=CC(C)C2C[C@H]3O[C@H](O)C[C@H]4C(C)C(=O)C(O)C([C@@]2(C)C1=O)[C@@]34C` (stereo not given in full), the GI50 in the assay on DLD-1 and in the assay on LXFL 529 was > 100 µM (inactive) throughout.

As to `COC(=O)C1CC(OC(C)=O)C=C2C(=O)CCC21` (stereo not given), the values for the GI50 with DLD-1, in the assay on LXFL 529 and with RXF 631 were 14.5 µM (inactive), 15.5 µM (inactive) and 27.5 µM (inactive), respectively.

Consider `CCc1ccc2c(c1)N(CC(C)CN(C)C)c1ccccc1S2` (stereo not given) [ETYMEMAZINE HYDROCHLORIDE], for which the GI50 is 7.91 µM (inactive) with DU-145; 4.93 µM (inactive) with PC-3; 12.9 µM (inactive) in the assay on BT-549; 5.5 µM (inactive) in the assay with MDA-N; 6.01 µM (inactive) in the assay with Hs-578T.
